Measurements taken from PMC5571359, “Screening the Medicines for Malaria Venture Pathogen Box across Multiple Pathogens Reclassifies Starting Points for Open-Source Drug Discovery” (Antimicrobial Agents and Chemotherapy, 2017).
Where two headings read alike, the source gives them in different places.

Assays:
[1] = test system: L. donovani MHOM/IN/80/DD8 intracellular amastigotes; assay: Leishmania donovani intracellular amastigote assay in THP-1 cells; type: cell-based; details: for IC50: Leishmania donovani
[2] = test system: Candida albicans biofilm formation; parameters: method as in PMID 27795383; details: cited from earlier work
[3] = test system: T. b. brucei 427 bloodstream trypanosomes; assay: T. b. brucei resazurin viability assay; type: cell-based, Trypanosoma brucei brucei; details: for IC50: Trypanosoma brucei
[4] = test system: NF54-pfs16-LUC-GFP stage IV gametocytes; assay: Plasmodium falciparum late stage gametocyte (LSG) image-based assay; type: cell-based
[5] = test system: Plasmodium falciparum 3D7 asexual blood stage
HepG2 = details: cited from earlier work; for CC50: read-out: HepG2 PBox CC50 µM
HEK293 cells [6] = assay: HEK293 resazurin cell cytotoxicity assay
P. falciparum ABS = details: cited from earlier work; for EC50: ChEMBL Data, TCMDC, read-out: TCMDC (ref 93) EX50; for IC50: Pf 3D7, ref Pathogen Box supporting information, read-out: Pf 3D7 Pbox IC50
[7] = test system: P. falciparum stage V gametocytes; details: stage V gametocytes; ref Pathogen Box supporting information; read-out: PF stage V GAMS PBox IC50; cited from earlier work
liver stage = details: liver stage; ref Pathogen Box supporting information; read-out: LIVER STAGE Pbox IC50; cited from earlier work
[8] = test system: Plasmodium falciparum 3D7 asexual blood stage; assay: microbe, parasite or virus in culture
Kinase CDPK1 = target: Kinase CDPK1; parameters: method as in earlier work; details: ChEMBL Data; read-out: CROWTHER ref 101) Kinase CDPK1 IC50; cited from earlier work
[9] = HEK293 resazurin cell cytotoxicity assay; details: human
[10] = test system: Plasmodium cGMP-dependent protein kinase (PfPKG); parameters: method as in PMID 16325279, PMID 20643897; details: cited from earlier work
[11] = test system: L. infanium (macrophages); parameters: method as in Pathogen Box supporting information; details: ref Pathogen Box supporting information, read-out: L. infanium (macrophages) Pbox IC50; cited from earlier work
[12] = test system: T. cruzi intracellular amastigotes; assay: Intracellular anti-Trypanosoma cruzi image-based assay (amastigotes); type: cell-based; details: for IC50: Trypanosoma cruzi
HEK293 cells [13] = test system: HEK293 cells
3T3 host cells = assay: T. cruzi assay, activity against 3T3 host cells; type: cell-based; details: reference compound set; IA = inactive at 16.4 μM
Method in brief: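 3T3 cells were seeded on collagen-coated plates, incubated 24 h at 37 °C, infected with T. cruzi at MOI 5:1, and washed free of extracellular parasites after a further 24 h. Following 48 h compound exposure, cells were fixed, stained with Hoechst 33342 and HCS CellMask Green, and imaged by high-content analysis.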

in vitro = details: human
[14] = test system: L. infanium (macrophages); parameters: method as in Pbox supporting information; details: ref Pbox supporting information; cited from earlier work
T. brucei brucei = details: ref Pbox supporting information; read-out: T.b. brucei Pbox IC50; cited from earlier work
[15] = test system: T. cruzi C4 β-galactosidase reporter parasite in MRC 5SV2 host cells; details: ref Pbox supporting information; read-out: T. cruzi Pbox IC50; cited from earlier work
T. brucei rhodesiense = details: ref Pbox supporting information; read-out: T .b. rohdensie Pbox IC50; cited from earlier work
barber's pole worm = test system: barber's pole worm; parameters: method as in PMID 27524698; details: cited from earlier work
[16] = Plasmodium falciparum, NF54, read-out: Antiplasmodial IC50 (GAM / LSG), PBox compounds, stage IV gametocytes, single determination
[17] = Plasmodium falciparum, NF54, read-out: Pf Stage IV GAMS Discovery Biology IC50 µM, stage IV gametocytes, Discovery Biology
[18] = HepG2 CC50, ref Pathogen Box supporting information
[19] = 3D7, read-out: Pf 3D7 Discovery Biology IC50 µM, P. falciparum 3D7 asexual blood stage, Discovery Biology
[20] = read-out: IC50 T. brucei brucei (Discovery Biology)
[21] = HepG2 cytotoxicity, ref PBox supporting information
[22] = THP-1, intracellular amastigotes, Discovery Biology, some values carry an asterisk, read-out: L, donovani Discovery Biology IC50 µM
[23] = intracellular amastigotes, Discovery Biology, read-out: T cruzi Discovery Biology IC50

Cc1[nH]c2ccccc2c1C(c1cccs1)N1CCN(C)CC1 (stereo not shown) [MMV688768]
IC50 ([1]; THP-1, intracellular amastigotes, values marked *, read-out: L, donovani Discovery Biology IC50 µM): 5.4 µM | activity against Candida albicans biofilm formation [2]: inhibitory activity | selectivity index (SI) T. brucei brucei versus HEK293 ([3]; HEK293): > 13 | selectivity index (SI) T. brucei brucei versus HEPG2 ([3]; HEPG2 (PBox data)): > 6 | IC50 ([3]; PBox compounds, read-out: IC50 T. brucei brucei (Discovery Biology)): 1.5 µM | IC50 [4, 16]: 4.7 µM | activity in the Discovery Biology ABS assay [5]: not ABS activity | HepG2 PBox CC20 μMc (HepG2; ref Pbox supporting information): 8.5 µM | IC50 (HEK293 cells [6]; Homo sapiens, HEK293, read-out: HEK % Inhibition 20uM/IC50 Discovery Biology (IA)): > 20 µM

CN(C(=O)c1cc2c(-c3cncnc3)cccc2[nH]1)c1ccccc1 [MMV024443]
EC50 (P. falciparum ABS): 0.63 µM | IC50 (P. falciparum ABS): 0.72 µM | IC50 [7]: 0.57 µM | IC50 (liver stage): 1.02 µM | IC50 [4, 17]: 2.71 µM | CC50 (HepG2; [18]): > 10 µM | IC50 [8, 19]: 1.69 µM | IC50 (Kinase CDPK1): 0.27 µM

CCOC(=O)c1c(NC(=O)c2c(F)c(F)c(F)c(F)c2F)sc(C(N)=O)c1C [MMV153413]
IC50 [3, 20]: 2.99 µM | IC50 [4, 16]: 1.06 µM | activity in the Discovery Biology ABS assay [5]: not ABS activity | CC50 (HepG2; [21]): 4.2 µM | selectivity ratio at 72 h [9]: > 5

CN1CCC(c2cc(-c3ccncc3)c(-c3ccc(F)cc3)[nH]2)CC1 [MMV688703]
IC50 [10]: 0.0085 µM | activity in the Discovery Biology stage IV gametocyte (LSG) assay [4]: does not affect | IC50 ([8]; 3D7, read-out: Antiplasmodial IC50 (ABS), PBox compounds, P. falciparum 3D7): 3.16 µM

C[C@H](c1ccc2c(c1)CCCC2)N(C)c1ncc2c(N)nc(N)nc2n1 [MMV690103]
IC50 [11]: 0.47 µM | activity against L. donovani in the Discovery Biology assay [1]: demonstrated activity | IC50 [1, 22]: 5.2 µM | activity against T. brucei brucei in the Discovery Biology assay [3]: not active | activity against T. cruzi in the Discovery Biology assay [12]: demonstrated activity | IC50 [12, 23]: 0.1 µM | activity in the Discovery Biology ABS assay [5]: not active | activity in the HEK293 cytotoxicity assay (HEK293 cells [6]): no activity

CC(C)(CN)c1nc(-c2ccc(Cl)c(O)c2)c(-c2ccnc(N)n2)[nH]1 [MMV030734]
EC50 (P. falciparum ABS): 0.98 µM | IC50 (P. falciparum ABS): 0.41 µM | IC50 (liver stage): 0.32 µM | CC50 (HepG2; [18]): > 10 µM | IC50 (Kinase CDPK1): 0.007 µM

Cc1cc(C2=NOC(c3cc(Cl)c(F)c(Cl)c3)(C(F)(F)F)C2)ccc1C(=O)NCc1ccc2c(c1)C(C)(C)OB2O (stereo not shown) [MMV687776]
activity in the HEK293 cytotoxicity assay (HEK293 cells [13]): did not display activity | selectivity index (SI) T. cruzi versus HEK293 ([12]; HEK293): > 8 | selectivity index (SI) T. cruzi versus HEPG2 ([12]; HEPG2 (PBox data)): 4.3 | IC50 ([12]; PBox compounds, intracellular amastigotes, 48 h exposure, read-out: IC50 T. cruzi (Discovery Biology)): 2.39 µM | HepG2 PBox CC20 μMc (HepG2): 10.9 µM | IC50 (HepG2): 10.9 µM

Nc1ncc(-c2cn[nH]c2)cc1-c1nc2cc(Cl)cnc2[nH]1 [MMV023370]
EC50 (P. falciparum ABS): 0.92 µM | IC50 (P. falciparum ABS): 0.4 µM | IC50 (Kinase CDPK1): 0.28 µM

CC(c1cc(Cl)cc(Cl)c1)N(C)c1ncc2c(N)nc(N)nc2n1 (stereo not shown) [MMV689437]
IC50 [11]: 0.54 µM | activity against L. donovani in the Discovery Biology assay [1]: demonstrated activity | IC50 [1, 22]: 5.73 µM | activity against T. brucei brucei in the Discovery Biology assay [3]: not active | activity against T. cruzi in the Discovery Biology assay [12]: demonstrated activity | IC50 [12, 23]: 0.19 µM | activity in the Discovery Biology ABS assay [5]: not active | activity in the HEK293 cytotoxicity assay (HEK293 cells [6]): no activity

CC(C)=CCC/C(C)=C/CNCCNC1C2CC3CC(C2)CC1C3 (stereo not shown) [MMV687273, SQ-109]
activity against L. donovani in the Discovery Biology assay [1]: active | IC50 ([1]; THP-1, read-out: IC50 L. donovani (Discovery Biology), PBox compounds, intracellular amastigotes): 3.47 µM | activity against T. brucei brucei in the Discovery Biology assay [3]: active | IC50 [3, 20]: 2.28 µM | activity against T. cruzi in the Discovery Biology assay [12]: active | IC50 ([12]; read-out: T cruzi Discovery Biology IC50 µM): 5.39 µM | IC50 [4, 17]: 1.89 µM | activity in the Discovery Biology ABS assay [5]: active | CC50 (HepG2; [21]): 7.1 µM | IC50 [8, 19]: 1.43 µM | IC50 ([8]; 3D7, read-out: activity against P. falciparum (novel antiplasmodial actives of the tuberculosis set)): < 2 µM | selectivity ratio at 72 h [9]: > 5

COc1ccc(Oc2ccc([C@@H](C)N(C)c3ncc4c(N)nc(N)nc4n3)cc2)cc1 [MMV690102]
IC50 [11]: 0.03 µM | activity against L. donovani in the Discovery Biology assay [1]: demonstrated activity | IC50 [1, 22]: 0.46 µM | activity against T. brucei brucei in the Discovery Biology assay [3]: not active | activity against T. cruzi in the Discovery Biology assay [12]: demonstrated activity | IC50 [12, 23]: 0.09 µM | activity in the Discovery Biology ABS assay [5]: not active | activity in the HEK293 cytotoxicity assay (HEK293 cells [6]): no activity

CO[C@H]1/C=C/O[C@@]2(C)Oc3c(C)c(O)c4c(O)c(c(/C=N/N5CCN(C)CC5)c(O)c4c3C2=O)NC(=O)/C(C)=C\C=C\[C@H](C)[C@H](O)[C@@H](C)[C@@H](O)[C@@H](C)[C@H](OC(C)=O)[C@@H]1C [Rifampin, reference compound]
IC50 (3T3 host cells): > 16.4 µM | IC50 ([1]; THP-1, read-out: IC50 L. donovani n = 1, reference compound set, first test, IA = inactive at 20 μM): > 20 µM | IC50 ([1]; THP-1, read-out: IC50 L. donovani n = 2, reference compound set, second test, IA = inactive at 20 μM): > 20 µM | IC50 ([3]; reference compound set, IA = inactive at 20 μM, read-out: IC50 T. brucei brucei trypomastigotes): > 20 µM | IC50 ([12]; reference compound set, IA = inactive at 16.4 μM, read-out: IC50 T. cruzi intracellular amastigotes): > 16.4 µM | inhibition at 20 µM ([4]; Plasmodium falciparum, NF54, read-out: percent inhibition at the top screening dose, P. falciparum NF54 LSG): 78% | IC50 at 72 h (in vitro): > 20 µM | IC50 ([8]; 3D7, read-out: IC50 P. falciparum 3D7 ABS): 2.23 µM

CCc1nn(C)c(C(=O)NCc2ccc(Oc3ccc(C)cc3)cc2)c1Cl [MMV688934, Tolfenpyrad]
IC50 [14]: 45.6 µM | IC50 (T. brucei brucei): 33 µM | IC50 [15]: 5.35 µM | IC50 (T. brucei rhodesiense): 20.4 µM | activity against the helminth barber's pole worm (barber's pole worm): activity
